We go through five compounds from patent US20240024385A1, “PROBIOTIC STRAIN FOR REDUCING SERUM URIC ACID, COMPOSITION AND USE THEREOF” (Ningbo Beiyijia Biotechnology Co., Ltd., priority 2022, published 2024).

For series [1] the following is noted: 20° C.; cited from earlier work.
A further series has as its system serum uric acid. Nature of the series: Combined use of composition 6 with a uric acid-reducing drug, serum uric acid in hyperuricemia patients with tophi. It counts as in vivo, human. Also on record: Serum uric acid: unit not given here. The settings on record: for Serum uric acid: hyperuricemia patients with tophi, febuxostat 20 mg/day or benzbromarone 25 mg/day; for Effect on increase of serum uric acid level caused by dissolution of urate crystals by composition 6: small dose combined with composition 6 (febuxostat 20 mg/day or benzbromarone 25 mg/day). An excerpt: The process of dissolving urate crystals and tophi will result in a temporary increase of the serum uric acid level, which may lead to acute gout inflammation. In order to relieve the increase of the serum uric acid level caused by the dissolution of urate crystals or tophi, the effect of combined use of the composition 6 with a small-dose uric acid-reducing drug on the inhibition of the rise of the serum uric acid level was investigated.
Fifty hyperuricemia patients with tophi were recruited as volunteers, divided into 5 groups, and separately administered with the composition 6 and the uric acid-reducing drug (febuxostat 20 mg/day or benzbromarone 25 mg/day) alone or in combination. The change of serum uric acid during the intervention period was observed.

For `Nc1nc2nc[nH]c2c(=O)[nH]1` [guanine], the Solubility in water in series [1] is 0.17 mg/100 mL.
Regarding `Cc1nc(-c2ccc(OCC(C)C)c(C#N)c2)sc1C(=O)O` [febuxostat], the Serum uric acid in the series with serum uric acid (Day 0 (before intervention)) worked out at 631 ± 51; with serum uric acid (Day 30), 571 ± 52; in the series on serum uric acid (Day 60), 478 ± 57; with serum uric acid (Day 90), 416 ± 59. Besides, in the series on serum uric acid, the “Effect on increase of serum uric acid level caused by dissolution of urate crystals by composition 6” value is recorded as “can inhibit the increase of the serum uric acid level”.
As to `Nc1nc2c(ncn2[C@@H]2O[C@H](CO)[C@@H](O)[C@H]2O)c(=O)[nH]1` [guanosine], in series [1], the Solubility in water is listed as 77.6 mg/100 mL.
Turning to `CCc1oc2ccccc2c1C(=O)c1cc(Br)c(O)c(Br)c1` [benzbromarone], the Serum uric acid was 640 ± 78 with serum uric acid (Day 0 (before intervention)), 593 ± 71 in the series with serum uric acid (Day 30), 463 ± 53 with serum uric acid (Day 60) and 405 ± 37 with serum uric acid (Day 90). In addition, the “Effect on increase of serum uric acid level caused by dissolution of urate crystals by composition 6” value with serum uric acid was “can inhibit the increase of the serum uric acid level”.
With `Nc1nc2c(ncn2[C@@H]2O[C@H](COP(=O)(O)O)[C@@H](O)[C@H]2O)c(=O)[nH]1` [guanosine monophosphate], the Solubility in water in series [1] is on record as 20 g/100 mL.
